*1 amine or outer side, *2 acyl side, *3 side chain or, on linkers, in order; H or OH if unused. Where a SMILES comes first, the peptide text is derived from it. Bridges are numbered along the chain shown (N, C = ends). [ ]: non-standard residue; d: D form. The star is where a group is joined. X5 = NC(=O)[C@H](CCCCNC(=O)CN1CCN(CC(=O)O)CCN(CC(=O)O)CCN(CC(=O)O)CC1)NC(=O)CCC(=O)NCCCOCCOCCOCCCN*; X3 = O=C(O)CN1CCN(CC(=O)O)CCN(CC(=O)NCCCOCCOCCOCCCN*)CCN(CC(=O)O)CC1; DOTA = O=C(O)CN1CCN(CC(=O)O)CCN(CC(=O)*)CCN(CC(=O)O)CC1; Trp(5-Cl) = N[C@@H](Cc1c[nH]c2ccc(Cl)cc12)C(=O)O; Propanoyl(3-(4-F-phenyl)) = O=C(CCc1ccc(F)cc1)*; Pyridine(2,6-diCH2) = c1cc(C[*:1])nc(C[*:2])c1; Pro(4R-NH2) = N[C@H]1CN[C@H](C(=O)O)C1; 1Nal = N[C@@H](Cc1cccc2ccccc12)C(=O)O; Desaminotyrosyl = O=C(CCc1ccc(O)cc1)*; mXylylene = c1cc(C[*:1])cc(C[*:2])c1; Hydrocinnamoyl = O=C(CCc1ccccc1)*; X7 = c1cc(CSCCN[*:2])cc(C[*:1])c1; Hyp = O=C(O)[C@@H]1C[C@@H](O)CN1; tBuAla = CC(C)(C)C[C@H](N)C(=O)O; Cha = N[C@@H](CC1CCCCC1)C(=O)O; NMeD = CN[C@@H](CC(=O)O)C(=O)O; Suc = O=C(CCC(=O)[*:2])[*:1]; Api = NC1(C(=O)O)CCNCC1; Thp = NC1(C(=O)O)CCOCC1; Deg = CCC(N)(CC)C(=O)O; Aib = CC(C)(N)C(=O)O
These molecules were tested against T1, GIPR (CHO-K1-hGIPR cells) (Homo sapiens, UniProt P48546) (assay: FACS binding assay). Settings: competition with 20 nM GIP-057, 4° C., 1 hour, read-out: pIC50 Category (converted).
T1 construct: host or cells: CHO-K1
T1 sequence (P48546 22-466): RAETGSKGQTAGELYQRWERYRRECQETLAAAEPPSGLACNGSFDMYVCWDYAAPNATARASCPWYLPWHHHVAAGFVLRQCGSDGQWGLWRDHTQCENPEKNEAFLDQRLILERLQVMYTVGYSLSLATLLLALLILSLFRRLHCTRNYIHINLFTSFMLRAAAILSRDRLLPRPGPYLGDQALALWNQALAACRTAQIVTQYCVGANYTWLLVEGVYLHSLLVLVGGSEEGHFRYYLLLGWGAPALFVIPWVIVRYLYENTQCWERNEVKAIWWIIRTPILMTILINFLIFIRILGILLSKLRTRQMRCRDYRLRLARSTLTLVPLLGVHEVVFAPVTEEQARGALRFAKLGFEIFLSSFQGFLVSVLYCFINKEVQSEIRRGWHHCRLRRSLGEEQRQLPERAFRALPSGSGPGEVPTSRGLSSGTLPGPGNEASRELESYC
Outline: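 Median fluorescence in the APC channel, measured on washed CHO-K1 cells overexpressing human GIPR, was fitted by four-parameter logistic regression against peptide concentration to yield EC50 or IC50 values. Secondary labelling used APC-streptavidin (1 μg/mL, 30 min, ice).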

Row | Structure (SMILES) | IC50
1 | CC[C@H](C)[C@@H]1NC(=O)[C@H](CC(C)C)NC(=O)C(C)(C)NC(=O)[C@@H](NC(=O)[C@H](CC(C)C)NC(=O)[C@H](CCC(=O)O)NC(=O)[C@@H]2CCCN2C(=O)[C@H](Cc2c[nH]c3ccccc23)NC(=O)[C@H](Cc2c[nH]c3ccccc23)NC(=O)[C@H](CC(=O)O)N(C)C(=O)CCC(=O)NCCCOCCOCCOCCCNC(=O)CN2CCN(CC(=O)O)CCN(CC(=O)O)CCN(CC(=O)O)CC2)CSCc2cccc(c2)CSCCNC1=O [GIP-130, DOTA-Ttds-Nmd-Trp-Trp-Pro-Glu-Leu-[Cys(3MeBn)-Aib-Leu-Ile-AET]] ({X3-Suc}-[NMeD]WWPELC[Aib]LI; linker 7-C via X7) | 10 to 79.4 nM
2 | CC[C@H](C)[C@@H]1NC(=O)[C@H](CC(C)C)NC(=O)C(C)(C)NC(=O)[C@@H](NC(=O)[C@H](CC(C)C)NC(=O)[C@H](CCC(=O)O)NC(=O)[C@@H]2CCCN2C(=O)[C@H](Cc2c[nH]c3ccccc23)NC(=O)[C@H](Cc2c[nH]c3ccccc23)NC(=O)[C@H](CC(=O)O)NC(C)=O)CSCc2cccc(c2)CSC[C@@H](C(=O)NCCCOCCOCCOCCCNC(=O)CCC(=O)N[C@@H](CCCCNC(=O)CN2CCN(CC(=O)O)CCN(CC(=O)O)CCN(CC(=O)O)CC2)C(N)=O)NC1=O [GIP-131, Ac-Asp-Trp-Trp-Pro-Glu-Leu-[Cys(3MeBn)-Aib-Leu-Ile-Cys]-Ttds-Lys(DOTA)-NH2] (Ac-DWWPELC[Aib]LIC-X5; linker 7-11 via mXylylene) | 10 to 79.4 nM
3 | CC[C@H](C)[C@@H]1NC(=O)[C@H](CC(C)(C)C)NC(=O)C(C)(C)NC(=O)[C@@H](NC(=O)[C@H](CC(C)C)NC(=O)[C@H](CCC(=O)O)NC(=O)[C@@H]2CCCN2C(=O)[C@H](Cc2c[nH]c3ccccc23)NC(=O)[C@H](Cc2c[nH]c3ccccc23)NC(=O)[C@H](CC(=O)O)NC(C)=O)CSCc2cccc(c2)CSC[C@@H](C(=O)NCCCOCCOCCOCCCNC(=O)CCC(=O)N[C@@H](CCCCNC(=O)CN2CCN(CC(=O)O)CCN(CC(=O)O)CCN(CC(=O)O)CC2)C(N)=O)NC1=O [GIP-133, Ac-Asp-Trp-Trp-Pro-Glu-Leu-[Cys(3MeBn)-Aib-Npg-Ile-Cys]-Ttds-Lys(DOTA)-NH2] (Ac-DWWPELC[Aib][tBuAla]IC-X5; linker 7-11 via mXylylene) | 10 to 79.4 nM
4 | CC[C@H](C)[C@@H]1NC(=O)[C@H](CC2CCCCC2)NC(=O)C(C)(C)NC(=O)[C@@H](NC(=O)[C@H](CC(C)C)NC(=O)[C@H](CCC(=O)O)NC(=O)[C@@H]2CCCN2C(=O)[C@H](Cc2c[nH]c3ccccc23)NC(=O)[C@H](Cc2c[nH]c3ccccc23)NC(=O)[C@H](CC(=O)O)NC(C)=O)CSCc2cccc(c2)CSC[C@@H](C(=O)NCCCOCCOCCOCCCNC(=O)CCC(=O)N[C@@H](CCCCNC(=O)CN2CCN(CC(=O)O)CCN(CC(=O)O)CCN(CC(=O)O)CC2)C(N)=O)NC1=O [GIP-134, Ac-Asp-Trp-Trp-Pro-Glu-Leu-[Cys(3MeBn)-Aib-Cha-Ile-Cys]-Ttds-Lys(DOTA)-NH2] (Ac-DWWPELC[Aib][Cha]IC-X5; linker 7-11 via mXylylene) | 10 to 79.4 nM
5 | CC[C@H](C)[C@@H]1NC(=O)[C@H](CC(C)C)NC(=O)C(C)(C)NC(=O)[C@@H](NC(=O)[C@@H](CC(C)C)NC(=O)[C@H](CCC(=O)O)NC(=O)[C@@H]2CCCN2C(=O)[C@H](Cc2c[nH]c3ccccc23)NC(=O)[C@H](Cc2c[nH]c3ccccc23)NC(=O)[C@H](CC(=O)O)NC(=O)CCc2ccccc2)CSCc2cccc(c2)CSC[C@@H](C(=O)NCCCOCCOCCOCCCNC(=O)CCC(=O)N[C@@H](CCCCNC(=O)CN2CCN(CC(=O)O)CCN(CC(=O)O)CCN(CC(=O)O)CC2)C(N)=O)NC1=O [GIP-135, Php-Asp-Trp-Trp-Pro-Glu-leu-[Cys(3MeBn)-Aib-Leu-Ile-Cys]-Ttds-Lys(DOTA)-NH2] (Hydrocinnamoyl-DWWPE[dL]C[Aib]LIC-X5; linker 7-11 via mXylylene) | 10 to 79.4 nM
6 | CC[C@H](C)[C@@H]1NC(=O)[C@H](CC(C)C)NC(=O)C(C)(C)NC(=O)[C@@H](NC(=O)[C@@H](CC(C)C)NC(=O)[C@H](CCC(=O)O)NC(=O)[C@@H]2CCCN2C(=O)[C@H](Cc2c[nH]c3ccccc23)NC(=O)[C@H](Cc2c[nH]c3ccccc23)NC(=O)[C@H](CC(=O)O)NC(=O)CCc2ccc(F)cc2)CSCc2cccc(c2)CSC[C@@H](C(=O)NCCCOCCOCCOCCCNC(=O)CCC(=O)N[C@@H](CCCCNC(=O)CN2CCN(CC(=O)O)CCN(CC(=O)O)CCN(CC(=O)O)CC2)C(N)=O)NC1=O [GIP-136, 4FPhp-Asp-Trp-Trp-Pro-Glu-leu-[Cys(3MeBn)-Aib-Leu-Ile-Cys]-Ttds-Lys(DOTA)-NH2] ({Propanoyl(3-(4-F-phenyl))}-DWWPE[dL]C[Aib]LIC-X5; linker 7-11 via mXylylene) | 10 to 79.4 nM

Results, then the molecule that gave them:

Row | IC50 | Structure (SMILES)
7 | < 10 nM | CC[C@H](C)[C@@H]1NC(=O)[C@H](CC(C)C)NC(=O)C2(CCN(C(=O)CN3CCN(CC(=O)O)CCN(CC(=O)O)CCN(CC(=O)O)CC3)CC2)NC(=O)[C@@H](NC(=O)[C@@H](CC(C)C)NC(=O)[C@H](CCC(=O)O)NC(=O)[C@@H]2C[C@@H](N)CN2C(=O)[C@H](Cc2c[nH]c3ccc(Cl)cc23)NC(=O)[C@H](Cc2c[nH]c3ccccc23)NC(=O)[C@H](CC(=O)O)NC(C)=O)CSCc2cccc(n2)CSC[C@@H](C(N)=O)NC1=O [GIP-123, Ac-Asp-Trp-5Clw-Tap-Glu-leu-[Cys(2Lut)-Apc(DOTA)-Leu-Ile-Cys]-NH2] (Ac-DW[Trp(5-Cl)][Pro(4R-NH2)]E[dL]C[Api](DOTA)LIC-NH2; linker 7-11 via Pyridine(2,6-diCH2))
8 | < 10 nM | CC[C@H](C)[C@@H]1NC(=O)[C@H](CC(C)C)NC(=O)C2(CCOCC2)NC(=O)[C@@H](NC(=O)[C@@H](CC(C)C)NC(=O)[C@H](CCC(=O)O)NC(=O)[C@@H]2C[C@@H](O)CN2C(=O)[C@H](Cc2c[nH]c3ccc(Cl)cc23)NC(=O)[C@H](Cc2c[nH]c3ccccc23)NC(=O)[C@H](CC(=O)O)NC(=O)CN2CCN(CC(=O)O)CCN(CC(=O)O)CCN(CC(=O)O)CC2)CSCc2cccc(n2)CSC[C@@H](C(N)=O)NC1=O [GIP-125, DOTA-Asp-Trp-5Clw-Hyp-Glu-leu-[Cys(2Lut)-Thp-Leu-Ile-Cys]-NH2] ({DOTA}-DW[Trp(5-Cl)][Hyp]E[dL]C[Thp]LIC-NH2; linker 7-11 via Pyridine(2,6-diCH2))
9 | 10 to 79.4 nM | CC[C@H](C)[C@@H]1NC(=O)[C@H](CC(C)C)NC(=O)C(C)(C)NC(=O)[C@@H](NC(=O)[C@H](CC(C)(C)C)NC(=O)[C@H](CCC(=O)O)NC(=O)[C@@H]2CCCN2C(=O)[C@H](Cc2c[nH]c3ccccc23)NC(=O)[C@H](Cc2c[nH]c3ccccc23)NC(=O)[C@H](CC(=O)O)NC(C)=O)CSCc2cccc(c2)CSC[C@@H](C(=O)NCCCOCCOCCOCCCNC(=O)CCC(=O)N[C@@H](CCCCNC(=O)CN2CCN(CC(=O)O)CCN(CC(=O)O)CCN(CC(=O)O)CC2)C(N)=O)NC1=O [GIP-132, Ac-Asp-Trp-Trp-Pro-Glu-Npg-[Cys(3MeBn)-Aib-Leu-Ile-Cys]-Ttds-Lys(DOTA)-NH2] (Ac-DWWPE[tBuAla]C[Aib]LIC-X5; linker 7-11 via mXylylene)
10 | 10 to 79.4 nM | CC[C@H](C)[C@@H]1NC(=O)[C@H](CC(C)C)NC(=O)C(C)(C)NC(=O)[C@@H](NC(=O)[C@@H](CC(C)C)NC(=O)[C@H](CCC(=O)O)NC(=O)[C@@H]2CCCN2C(=O)[C@H](Cc2c[nH]c3ccccc23)NC(=O)[C@H](Cc2c[nH]c3ccccc23)NC(=O)[C@H](CC(=O)O)NC(=O)CCc2ccc(O)cc2)CSCc2cccc(c2)CSC[C@@H](C(=O)NCCCOCCOCCOCCCNC(=O)CCC(=O)N[C@@H](CCCCNC(=O)CN2CCN(CC(=O)O)CCN(CC(=O)O)CCN(CC(=O)O)CC2)C(N)=O)NC1=O [GIP-137, 4OHPhp-Asp-Trp-Trp-Pro-Glu-leu-[Cys(3MeBn)-Aib-Leu-Ile-Cys]-Ttds-Lys(DOTA)-NH2] (Desaminotyrosyl-DWWPE[dL]C[Aib]LIC-X5; linker 7-11 via mXylylene)
11 | 10 to 79.4 nM | CC(=O)N[C@@H](CC(=O)O)C(=O)N[C@@H](Cc1c[nH]c2ccccc12)C(=O)N[C@@H](Cc1cccc2ccccc12)C(=O)N1CCC[C@H]1C(=O)N[C@@H](CCC(=O)O)C(=O)N[C@H](CC(C)C)C(=O)N[C@H]1CSCc2cccc(c2)CSC[C@@H](C(=O)NCCCOCCOCCOCCCNC(=O)CCC(=O)N[C@@H](CCCCNC(=O)CN2CCN(CC(=O)O)CCN(CC(=O)O)CCN(CC(=O)O)CC2)C(N)=O)NC(=O)[C@H](C(C)C)NC(=O)[C@H](CC(C)C)NC(=O)[C@H](C)NC1=O [GIP-138, Ac-Asp-Trp-1Ni-Pro-Glu-leu-[Cys(3MeBn)-Ala-Leu-Val-Cys]-Ttds-Lys(DOTA)-NH2] (Ac-DW[1Nal]PE[dL]CALVC-X5; linker 7-11 via mXylylene)
12 | 10 to 79.4 nM | CC[C@H](C)[C@@H]1NC(=O)[C@H](CC(C)C)NC(=O)C(CC)(CC)NC(=O)[C@@H](NC(=O)[C@@H](CC(C)C)NC(=O)[C@H](CCC(=O)O)NC(=O)[C@@H]2CCCN2C(=O)[C@H](Cc2cccc3ccccc23)NC(=O)[C@H](Cc2c[nH]c3ccccc23)NC(=O)[C@H](CC(=O)O)NC(C)=O)CSCc2cccc(c2)CSC[C@@H](C(=O)NCCCOCCOCCOCCCNC(=O)CCC(=O)N[C@@H](CCCCNC(=O)CN2CCN(CC(=O)O)CCN(CC(=O)O)CCN(CC(=O)O)CC2)C(N)=O)NC1=O [GIP-139, Ac-Asp-Trp-1Ni-Pro-Glu-leu-[Cys(3MeBn)-Deg-Leu-Ile-Cys]-Ttds-Lys(DOTA)-NH2] (Ac-DW[1Nal]PE[dL]C[Deg]LIC-X5; linker 7-11 via mXylylene)

Reference: patent US20250296971A1, “GASTRIC INHIBITORY PEPTIDE RECEPTOR LIGANDS” (priority 2021, published 2025)
